Earlier results, collected in patent US20250042963A1, “METHODS FOR TREATING MYELOPROLIFERATIVE DISORDERS” (Acceleron Pharma Inc., priority 2015, published 2025).

Legend:
patients with MF = settings: 82 evaluable patients with MF, three phase 1 and 2 trials; cited from earlier work
[1] = test system: patients with PV that did not respond to hydroxyurea; settings: cited from earlier work
[2] = test system: patients with PMF or post-PV/ET MF; settings: cited from earlier work
JAK2V617F-positive cells = settings: cited from earlier work
myelofibrosis patients = settings: cited from earlier work
[3] = test system: patients with a myeloproliferative disorder; settings: symptomatic splenomegaly; cited from earlier work
MF patients = settings: cited from earlier work

For `Nc1cccc2c1C(=O)N(C1CCC(=O)NC1=O)C2=O` (centres unmarked) [pomalidomide], the “anemia response according to IWG-MRT criteria” value (patients with MF) is listed as 27%.
In the case of `CCN(CC)Cc1ccc2cc(COC(=O)Nc3ccc(C(=O)NO)cc3)ccc2c1` [Givinostat, givinostat], the “complete or partial response” value ([1]; randomized phase 2 trial, PV) is listed as “approximately 50%” and the tolerability ([1]; the combination) is listed as “generally well tolerated”.
For `CO[C@H]1C[C@@H]2CC[C@@H](C)[C@@](O)(O2)C(=O)C(=O)N2CCCC[C@H]2C(=O)O[C@H]([C@H](C)C[C@@H]2CC[C@@H](OCCO)[C@H](OC)C2)CC(=O)[C@H](C)/C=C(\C)[C@@H](O)[C@@H](OC)C(=O)[C@H](C)C[C@H](C)/C=C/C=C/C=C/1C` [everolimus], the “complete resolution of pruritus” value ([2]; 30 evaluable patients) is listed as 80%, the “complete resolution of systemic symptoms” value ([2]; 30 evaluable patients) is listed as 69% and the “response rate, European Myelofibrosis Network criteria” value ([2]; in vivo) is listed as 60%. The “response rate, International Working Group for Myelofibrosis Research and Treatment criteria” value ([2]; in vivo) was 23% and the “proliferation of JAK2V617F-positive cells” value (JAK2V617F-positive cells) was “decreased”.
For `O=C1CCC(N2C(=O)c3ccccc3C2=O)C(=O)N1` (centres unmarked) [thalidomide], the tolerability (myelofibrosis patients; myelofibrosis patients, peripheral neuropathies, constipation, somnolence) is given as “poorly tolerated” and the “spleen responses / response rate” value [3] is given as < 20%.
For `CCCCc1nc2cc(/C=C/C(=O)NO)ccc2n1CCN(CC)CC` [pracinostat], the “IWG criteria anemia responses” value (MF patients; MF patients) is given as “approximately 10%” and the “reduction in spleen size (% of patients)” value (MF patients; human, in vivo) is given as 27%.
For `Nc1cccc2c1CN(C1CCC(=O)NC1=O)C2=O` (centres unmarked) [lenalidomide], the effect on anemia (myelofibrosis patients; myelofibrosis patients with del(5q31)-associated anemia) is listed as “significant improvement, with resolution of anemia” and the “spleen responses / response rate” value [3] is listed as 33%.
